Test results from ChEMBL document CHEMBL4507274 (2021).

Assays:
[1] = target: Cyclin-dependent kinase 17 (Homo sapiens) (UniProt Q00537); conditions: Compound concentration 100.0 nM
[2] = target: NT-3 growth factor receptor (Homo sapiens) (UniProt Q16288); conditions: Compound concentration 100.0 nM
[3] = target: Mitotic checkpoint serine/threonine-protein kinase BUB1 (Homo sapiens) (UniProt O43683); conditions: Compound concentration 100.0 nM
[4] = target: Death-associated protein kinase 2 (Homo sapiens) (UniProt Q9UIK4); conditions: Compound concentration 100.0 nM
[5] = target: Cyclin-dependent kinase-like 1 (Homo sapiens) (UniProt Q00532); conditions: Compound concentration 100.0 nM
[6] = target: T1, Cytoplasmic tyrosine-protein kinase BMX (Homo sapiens) (UniProt P51813); conditions: Compound concentration 100.0 nM
T1 sequence (whole entry): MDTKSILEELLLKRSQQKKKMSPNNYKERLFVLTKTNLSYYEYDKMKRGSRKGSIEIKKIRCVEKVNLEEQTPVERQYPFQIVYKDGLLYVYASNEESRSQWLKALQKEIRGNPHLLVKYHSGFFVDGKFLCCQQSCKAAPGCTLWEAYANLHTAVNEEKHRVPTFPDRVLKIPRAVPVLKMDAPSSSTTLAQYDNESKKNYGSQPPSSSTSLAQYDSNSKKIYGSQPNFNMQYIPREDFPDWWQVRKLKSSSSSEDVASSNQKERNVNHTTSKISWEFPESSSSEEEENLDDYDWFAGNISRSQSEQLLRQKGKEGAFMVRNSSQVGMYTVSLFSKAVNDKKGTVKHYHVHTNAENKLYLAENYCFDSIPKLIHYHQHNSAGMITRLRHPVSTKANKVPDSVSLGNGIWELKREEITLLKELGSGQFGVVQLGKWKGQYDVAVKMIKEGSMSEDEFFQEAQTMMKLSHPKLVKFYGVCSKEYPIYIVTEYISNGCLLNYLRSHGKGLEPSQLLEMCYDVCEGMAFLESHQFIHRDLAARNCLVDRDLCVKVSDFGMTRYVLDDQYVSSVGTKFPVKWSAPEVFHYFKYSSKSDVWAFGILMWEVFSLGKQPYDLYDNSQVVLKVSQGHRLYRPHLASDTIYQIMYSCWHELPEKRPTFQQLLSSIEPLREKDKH

[7] = target: Serine/threonine-protein kinase 26 (Homo sapiens) (UniProt Q9P289); conditions: Compound concentration 100.0 nM
[8] = target: D(4) dopamine receptor (Homo sapiens) (UniProt P21917); conditions: Compound concentration 10.0 uM
[9] = target: Fibroblast growth factor receptor 2 (Homo sapiens) (UniProt P21802); conditions: Compound concentration 100.0 nM
[10] = target: Interleukin-1 receptor-associated kinase 3 (Homo sapiens) (UniProt Q9Y616); conditions: Compound concentration 100.0 nM
[11] = target: Ribosomal protein S6 kinase alpha-1 (Homo sapiens) (UniProt Q15418); conditions: Compound concentration 100.0 nM
[12] = target: Ribosomal protein S6 kinase alpha-3 (Homo sapiens) (UniProt P51812); conditions: Compound concentration 100.0 nM
[13] = target: cAMP-dependent protein kinase catalytic subunit beta (Homo sapiens) (UniProt P22694); conditions: Compound concentration 100.0 nM
[14] = target: Mitogen-activated protein kinase kinase kinase 4 (Homo sapiens) (UniProt Q9Y6R4); conditions: Compound concentration 100.0 nM
[15] = target: Histamine H3 receptor (Homo sapiens) (UniProt Q9Y5N1); conditions: Compound concentration 10.0 uM
[16] = target: Serine/threonine-protein kinase Nek1 (Homo sapiens) (UniProt Q96PY6); conditions: Compound concentration 100.0 nM
[17] = target: Homeodomain-interacting protein kinase 3 (Homo sapiens) (UniProt Q9H422); conditions: Compound concentration 100.0 nM
[18] = test system: Mast/stem cell growth factor receptor Kit (Homo sapiens), P10721 [V559D,V654A]; conditions: Compound concentration 100.0 nM
[19] = target: Dual specificity tyrosine-phosphorylation-regulated kinase 2 (Homo sapiens) (UniProt Q92630); conditions: Compound concentration 100.0 nM
[20] = target: Mitogen-activated protein kinase kinase kinase 19 (Homo sapiens) (UniProt Q56UN5); conditions: Compound concentration 100.0 nM
[21] = target: Protein kinase C delta type (Homo sapiens) (UniProt Q05655); conditions: Compound concentration 100.0 nM
[22] = target: MAP kinase-interacting serine/threonine-protein kinase 1 (Homo sapiens) (UniProt Q9BUB5); conditions: Compound concentration 100.0 nM
[23] = target: Serine/threonine-protein kinase PAK 4 (Homo sapiens) (UniProt O96013); conditions: Compound concentration 100.0 nM
[24] = target: Serine/threonine-protein kinase 35 (Homo sapiens) (UniProt Q8TDR2); conditions: Compound concentration 100.0 nM
[25] = target: Eukaryotic translation initiation factor 2-alpha kinase 1 (Homo sapiens) (UniProt Q9BQI3); conditions: Compound concentration 100.0 nM
[26] = target: Serine/threonine-protein kinase TNNI3K (Homo sapiens) (UniProt Q59H18); conditions: Compound concentration 100.0 nM
[27] = target: Serine/threonine-protein kinase OSR1 (Homo sapiens) (UniProt O95747); conditions: Compound concentration 100.0 nM
[28] = target: Kappa-type opioid receptor (Homo sapiens, UniProt P41145); assay: GPCRScan assay: inhibition of KOR; design: radioligand conc. used [nm] 0.6 – 1.2, parental cells stable HEK
[29] = target: 5-hydroxytryptamine receptor 3A (Homo sapiens) (UniProt P46098); conditions: Compound concentration 10.0 uM
[30] = target: Phosphatidylinositol 4,5-bisphosphate 3-kinase catalytic subunit beta isoform (Homo sapiens) (UniProt P42338); conditions: Compound concentration 100.0 nM
[31] = target: Serine/threonine-protein kinase PLK1 (Homo sapiens) (UniProt P53350); conditions: Compound concentration 100.0 nM
[32] = test system: Tyrosine-protein kinase ABL1 (Homo sapiens), P00519 [Y253F]; conditions: Compound concentration 100.0 nM
[33] = target: SRSF protein kinase 2 (Homo sapiens) (UniProt P78362); conditions: Compound concentration 100.0 nM
[34] = target: Cyclin-dependent kinase 4 (Homo sapiens) (UniProt P11802); conditions: Compound concentration 100.0 nM
[35] = target: Vascular endothelial growth factor receptor 2 (Homo sapiens) (UniProt P35968); conditions: Compound concentration 100.0 nM
[36] = target: AP2-associated protein kinase 1 (Homo sapiens) (UniProt Q2M2I8); conditions: Compound concentration 100.0 nM

Homeodomain-interacting protein kinase 3 (Homo sapiens), sequence (Q9H422 whole entry, looked up): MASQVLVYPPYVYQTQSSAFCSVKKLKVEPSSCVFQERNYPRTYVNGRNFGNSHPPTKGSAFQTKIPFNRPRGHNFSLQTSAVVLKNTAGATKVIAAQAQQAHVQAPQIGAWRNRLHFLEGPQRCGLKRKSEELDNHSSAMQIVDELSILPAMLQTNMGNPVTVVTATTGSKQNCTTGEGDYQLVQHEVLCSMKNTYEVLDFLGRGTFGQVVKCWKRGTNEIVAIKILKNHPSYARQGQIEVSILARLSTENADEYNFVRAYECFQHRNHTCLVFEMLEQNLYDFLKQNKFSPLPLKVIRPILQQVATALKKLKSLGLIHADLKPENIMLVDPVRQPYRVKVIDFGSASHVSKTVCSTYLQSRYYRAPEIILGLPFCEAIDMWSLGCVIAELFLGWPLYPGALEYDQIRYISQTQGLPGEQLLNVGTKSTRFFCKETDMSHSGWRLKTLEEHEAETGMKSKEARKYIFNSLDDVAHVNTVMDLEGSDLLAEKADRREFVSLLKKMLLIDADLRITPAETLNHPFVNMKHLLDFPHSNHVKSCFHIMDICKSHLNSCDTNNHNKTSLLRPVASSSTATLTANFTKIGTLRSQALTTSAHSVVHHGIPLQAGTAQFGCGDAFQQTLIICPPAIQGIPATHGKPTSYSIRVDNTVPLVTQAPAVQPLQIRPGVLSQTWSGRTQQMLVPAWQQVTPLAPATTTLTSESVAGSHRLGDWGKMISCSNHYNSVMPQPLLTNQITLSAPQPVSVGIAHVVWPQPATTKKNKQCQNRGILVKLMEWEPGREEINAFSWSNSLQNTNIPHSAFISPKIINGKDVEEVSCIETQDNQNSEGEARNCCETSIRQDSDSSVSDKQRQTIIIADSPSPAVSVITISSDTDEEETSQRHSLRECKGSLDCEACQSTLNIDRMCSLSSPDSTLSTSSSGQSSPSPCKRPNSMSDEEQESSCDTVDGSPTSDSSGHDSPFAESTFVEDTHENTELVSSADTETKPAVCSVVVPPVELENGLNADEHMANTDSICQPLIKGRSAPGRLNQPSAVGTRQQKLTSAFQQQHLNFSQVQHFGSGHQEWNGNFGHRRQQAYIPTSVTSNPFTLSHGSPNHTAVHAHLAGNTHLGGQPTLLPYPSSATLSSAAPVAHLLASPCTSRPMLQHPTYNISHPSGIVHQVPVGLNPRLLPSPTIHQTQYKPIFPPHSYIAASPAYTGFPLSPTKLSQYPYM
Cyclin-dependent kinase 4 (Homo sapiens), sequence (P11802 whole entry): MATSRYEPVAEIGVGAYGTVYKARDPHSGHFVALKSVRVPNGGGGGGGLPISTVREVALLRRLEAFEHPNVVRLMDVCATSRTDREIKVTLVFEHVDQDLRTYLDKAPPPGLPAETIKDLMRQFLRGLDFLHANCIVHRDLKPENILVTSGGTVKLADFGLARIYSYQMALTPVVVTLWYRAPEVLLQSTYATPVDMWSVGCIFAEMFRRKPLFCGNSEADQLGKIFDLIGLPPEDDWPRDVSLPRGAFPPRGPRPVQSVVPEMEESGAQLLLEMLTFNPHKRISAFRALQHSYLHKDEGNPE
Eukaryotic translation initiation factor 2-alpha kinase 1 (Homo sapiens), sequence (Q9BQI3 whole entry): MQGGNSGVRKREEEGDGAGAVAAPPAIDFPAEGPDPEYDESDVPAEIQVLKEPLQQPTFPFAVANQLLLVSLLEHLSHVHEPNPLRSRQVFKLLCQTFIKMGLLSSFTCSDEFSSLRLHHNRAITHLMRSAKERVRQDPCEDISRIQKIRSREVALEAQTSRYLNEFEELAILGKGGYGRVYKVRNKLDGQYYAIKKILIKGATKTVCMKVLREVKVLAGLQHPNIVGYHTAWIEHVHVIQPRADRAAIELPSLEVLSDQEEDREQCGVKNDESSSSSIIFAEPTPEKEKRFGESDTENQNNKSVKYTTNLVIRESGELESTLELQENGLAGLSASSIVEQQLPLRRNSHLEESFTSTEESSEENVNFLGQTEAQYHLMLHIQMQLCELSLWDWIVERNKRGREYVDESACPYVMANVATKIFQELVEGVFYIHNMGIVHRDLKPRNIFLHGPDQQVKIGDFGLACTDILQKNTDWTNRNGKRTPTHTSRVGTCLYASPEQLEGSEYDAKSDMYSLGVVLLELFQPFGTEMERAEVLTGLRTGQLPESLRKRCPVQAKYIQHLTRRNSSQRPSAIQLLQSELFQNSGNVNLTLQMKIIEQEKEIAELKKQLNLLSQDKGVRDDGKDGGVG
D(4) dopamine receptor (Homo sapiens), sequence (P21917 whole entry): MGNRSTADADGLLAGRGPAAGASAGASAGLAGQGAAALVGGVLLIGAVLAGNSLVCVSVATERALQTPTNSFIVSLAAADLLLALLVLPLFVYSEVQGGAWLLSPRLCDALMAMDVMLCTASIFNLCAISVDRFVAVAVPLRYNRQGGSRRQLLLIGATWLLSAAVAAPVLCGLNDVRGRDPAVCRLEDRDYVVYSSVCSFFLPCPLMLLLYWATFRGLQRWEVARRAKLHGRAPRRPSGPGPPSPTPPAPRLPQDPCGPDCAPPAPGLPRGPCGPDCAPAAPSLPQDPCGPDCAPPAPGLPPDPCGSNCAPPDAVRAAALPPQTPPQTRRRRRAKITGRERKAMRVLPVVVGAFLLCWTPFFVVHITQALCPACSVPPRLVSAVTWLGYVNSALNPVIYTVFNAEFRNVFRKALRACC
Interleukin-1 receptor-associated kinase 3 (Homo sapiens), sequence (Q9Y616 whole entry): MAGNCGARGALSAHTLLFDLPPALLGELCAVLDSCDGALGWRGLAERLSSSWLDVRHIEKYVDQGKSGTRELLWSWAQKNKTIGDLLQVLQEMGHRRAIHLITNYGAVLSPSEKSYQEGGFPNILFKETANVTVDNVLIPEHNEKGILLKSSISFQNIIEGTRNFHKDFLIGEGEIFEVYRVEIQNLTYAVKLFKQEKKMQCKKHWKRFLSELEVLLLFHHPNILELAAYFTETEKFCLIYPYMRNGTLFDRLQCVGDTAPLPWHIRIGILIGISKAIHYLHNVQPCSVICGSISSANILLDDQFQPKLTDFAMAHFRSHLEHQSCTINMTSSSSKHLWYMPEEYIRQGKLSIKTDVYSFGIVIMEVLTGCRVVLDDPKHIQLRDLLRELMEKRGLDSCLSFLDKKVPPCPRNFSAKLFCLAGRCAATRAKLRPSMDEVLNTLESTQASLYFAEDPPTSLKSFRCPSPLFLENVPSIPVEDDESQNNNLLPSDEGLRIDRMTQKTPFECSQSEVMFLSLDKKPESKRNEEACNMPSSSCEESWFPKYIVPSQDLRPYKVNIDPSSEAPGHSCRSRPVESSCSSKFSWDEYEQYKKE
Vascular endothelial growth factor receptor 2 (Homo sapiens), sequence (P35968 whole entry): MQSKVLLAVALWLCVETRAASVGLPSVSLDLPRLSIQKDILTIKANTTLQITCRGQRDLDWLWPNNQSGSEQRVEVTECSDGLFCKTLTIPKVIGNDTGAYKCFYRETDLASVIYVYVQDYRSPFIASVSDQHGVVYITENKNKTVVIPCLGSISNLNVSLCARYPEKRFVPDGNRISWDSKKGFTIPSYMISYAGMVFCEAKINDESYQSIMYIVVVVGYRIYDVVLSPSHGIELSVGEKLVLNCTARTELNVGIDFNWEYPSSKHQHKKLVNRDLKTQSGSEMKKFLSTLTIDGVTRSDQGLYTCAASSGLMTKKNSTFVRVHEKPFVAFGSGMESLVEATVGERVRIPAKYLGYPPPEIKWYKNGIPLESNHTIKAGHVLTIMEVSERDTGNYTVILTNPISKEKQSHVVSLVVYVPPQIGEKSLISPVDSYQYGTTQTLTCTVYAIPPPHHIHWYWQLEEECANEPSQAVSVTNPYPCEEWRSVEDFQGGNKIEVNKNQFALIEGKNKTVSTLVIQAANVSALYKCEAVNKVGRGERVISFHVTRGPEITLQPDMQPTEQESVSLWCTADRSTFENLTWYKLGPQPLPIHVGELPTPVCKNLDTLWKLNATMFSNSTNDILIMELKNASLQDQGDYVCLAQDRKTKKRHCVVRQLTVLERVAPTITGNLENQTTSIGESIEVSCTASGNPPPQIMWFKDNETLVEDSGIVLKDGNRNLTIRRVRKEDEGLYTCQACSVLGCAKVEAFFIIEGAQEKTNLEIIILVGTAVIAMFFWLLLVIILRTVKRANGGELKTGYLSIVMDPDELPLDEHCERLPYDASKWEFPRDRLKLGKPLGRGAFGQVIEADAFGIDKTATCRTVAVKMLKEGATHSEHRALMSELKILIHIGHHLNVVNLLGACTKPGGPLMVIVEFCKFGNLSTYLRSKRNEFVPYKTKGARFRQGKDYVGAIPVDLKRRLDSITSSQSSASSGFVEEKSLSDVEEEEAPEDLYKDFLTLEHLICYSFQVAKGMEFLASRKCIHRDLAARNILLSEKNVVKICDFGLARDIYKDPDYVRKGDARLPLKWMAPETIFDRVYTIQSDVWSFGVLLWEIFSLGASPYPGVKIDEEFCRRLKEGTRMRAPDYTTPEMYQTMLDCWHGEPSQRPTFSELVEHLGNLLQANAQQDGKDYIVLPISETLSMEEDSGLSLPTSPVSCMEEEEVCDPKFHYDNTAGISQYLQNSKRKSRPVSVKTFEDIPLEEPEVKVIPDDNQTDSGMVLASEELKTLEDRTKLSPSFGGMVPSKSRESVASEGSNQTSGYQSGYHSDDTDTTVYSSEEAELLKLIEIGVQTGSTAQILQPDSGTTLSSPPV
Serine/threonine-protein kinase OSR1 (Homo sapiens), sequence (O95747 2-527 limits assumed): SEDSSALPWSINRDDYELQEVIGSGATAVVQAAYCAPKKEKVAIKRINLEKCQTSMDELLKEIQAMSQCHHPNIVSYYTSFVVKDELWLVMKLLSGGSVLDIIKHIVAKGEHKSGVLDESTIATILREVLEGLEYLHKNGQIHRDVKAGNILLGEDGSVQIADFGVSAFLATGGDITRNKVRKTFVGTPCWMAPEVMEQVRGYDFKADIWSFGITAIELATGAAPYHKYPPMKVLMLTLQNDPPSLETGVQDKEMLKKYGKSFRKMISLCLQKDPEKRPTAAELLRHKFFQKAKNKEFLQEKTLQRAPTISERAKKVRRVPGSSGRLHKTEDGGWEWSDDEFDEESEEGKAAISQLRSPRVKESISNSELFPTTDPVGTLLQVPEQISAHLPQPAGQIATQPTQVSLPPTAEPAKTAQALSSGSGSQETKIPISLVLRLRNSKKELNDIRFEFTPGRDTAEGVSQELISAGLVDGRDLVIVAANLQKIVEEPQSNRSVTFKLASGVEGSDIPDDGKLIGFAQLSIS

Row | Structure (SMILES) | residual activity [1] [%] | residual activity [2] [%] | residual activity [3] [%] | residual activity [4] [%] | residual activity [5] [%] | residual activity [6] [%] | residual activity [7] [%] | inhibition [8] [%] | residual activity [9] [%] | residual activity [10] [%] | residual activity [11] [%] | residual activity [12] [%] | residual activity [13] [%] | residual activity [14] [%] | inhibition [15] [%] | residual activity [16] [%] | residual activity [17] [%] | residual activity [18] [%] | residual activity [19] [%] | residual activity [20] [%] | other results
1 | Cc1c[nH]c2nccc(Oc3c(F)cc(Nc4cc(Cl)nc(N)n4)cc3F)c12 [BAY-549] | 81 | 86 | 75 | 89 | 100 | 100 | 100 | 11.4 | 100 | 85 | 91 | 73 | 36 | 100 | 8.13 | 96 | 92 | 94 | 100 | 74 | residual activity [21]: 100%; residual activity [22]: 100%; residual activity [23]: 100%; residual activity [24]: 94%; residual activity [25]: 77%; residual activity [26]: 98%; residual activity [27]: 92%; Ki [28]: 187 nM; inhibition [29]: 0.5%; residual activity [30]: 76%; residual activity [31]: 75%; residual activity [32]: 81%; residual activity [33]: 75%; residual activity [34]: 100%; residual activity [35]: 81%; residual activity [36]: 99%
2 | Cn1cc(Cl)c2c(Oc3c(F)cc(Nc4cc(Cl)nc(N)n4)cc3F)ccnc21 [BAY-4900] | 100 | 76 | 82 | 100 | 100 | 97 | 92 | 11.3 | 98 | 97 | 86 | 79 | 92 | 100 | 31 | 100 | 80 | 90 | 100 | 75 | residual activity [21]: 100%; residual activity [22]: 100%; residual activity [23]: 100%; residual activity [24]: 99%; residual activity [25]: 100%; residual activity [26]: 78%; residual activity [27]: 93%; Ki [28]: 391 nM; inhibition [29]: 4.46%; residual activity [30]: 82%; residual activity [31]: 83%; residual activity [32]: 95%; residual activity [33]: 78%; residual activity [34]: 100%; residual activity [35]: 93%; residual activity [36]: 100%
